Experimental data published in US10131652B2, “Pyrimidinyloxy benzene derivatives as herbicides” (E. I. DU PONT DE NEMOURS AND COMPANY, priority 2014, dated 2018).

Experiments:
Format in all cases: in vivo
[1] = test system: Italian ryegrass (Lolium multiflorum); experiment: Test B pre-/postemergence plant response
Method in brief: (§1)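 Ratings reflect visual injury versus untreated controls, from 0 for no effect to 100 for complete control, assessed roughly 10 days after treatment. Formulation: non-phytotoxic solvent mix with surfactant; pre- and postemergence sprays on plants grown in loam soil and sand.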

kochia (Kochia scoparia) [2] = experiment: Test B pre-/postemergence plant response
Method in brief: as §1

[3] = test system: ragweed (common ragweed, Ambrosia elatior); experiment: Test B pre-/postemergence plant response
Method in brief: as §1

kochia (Kochia scoparia) [4] = experiment: Test D postemergence plant response; settings: for Kochia plant response rating: 31 g ai/ha, scale 0 to 100 (0 no effect, 100 complete control); for Plant response rating, Kochia: scale 0 to 100, 0 no effect, 100 complete control
Method in brief: (§2)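 Plants grown in pots of peat moss–vermiculite medium with wetting agent and starter nutrients received postemergence applications of the formulated test chemicals at 2 to 18 cm height (1- to 4-leaf stage). After 13 to 15 days in a greenhouse, injury was scored visually against untreated controls, 0 (no effect) to 100 (complete control).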

wild oat (Avena fatua) = experiment: Test D postemergence plant response; settings: for Plant response rating, Oat, Wild: 125 g ai/ha
Method in brief: as §2

[5] = Postemergence, 1000 g ai/ha, 0 to 100 scale (0 no effect, 100 complete control)
[6] = Preemergence, 1000 g ai/ha, 0 to 100 scale (0 no effect, 100 complete control)
[7] = 31 g ai/ha, scale 0 to 100 (0 no effect, 100 complete control)
[8] = 62 g ai/ha, scale 0 to 100, 0 no effect, 100 complete control
[9] = scale 0 to 100, 0 no effect, 100 complete control
[10] = 31 g ai/ha, Preemergence, 0 to 100 scale where 0 is no effect and 100 is complete control
[11] = 125 g ai/ha, postemergence, 0 to 100 scale, 0 no effect, 100 complete control
[12] = Postemergence, 31 g ai/ha, 0 to 100 scale (0 no effect, 100 complete control)
[13] = Preemergence, 125 g ai/ha, 0 to 100 scale (0 no effect, 100 complete control)

Compound | Plant response rating (scale 0 to 100), Kochia (kochia (Kochia scoparia) [4]; 16 g ai/ha) | Kochia plant response rating (kochia (Kochia scoparia) [4]) | Plant response rating, Kochia (kochia (Kochia scoparia) [4]; 62 g ai/ha) | Plant response rating, Kochia (kochia (Kochia scoparia) [4]; 125 g ai/ha) | Plant response rating (scale 0 to 100), Oat, Wild (wild oat (Avena fatua); 16 g ai/ha) | Oat, Wild plant response rating (wild oat (Avena fatua); [7]) | Oat, Wild plant response rating (wild oat (Avena fatua); [8]) | Plant response rating, Oat, Wild (wild oat (Avena fatua); [9]) | Plant response rating, Ryegrass, Italian [1, 10] | Plant response rating, Ryegrass, Italian [1, 11] | Plant response rating, Ryegrass, Italian [1, 12] | Ryegrass, Italian plant response rating [1, 13] | Plant response rating, Kochia (kochia (Kochia scoparia) [2]; [10]) | Plant response rating, Kochia (kochia (Kochia scoparia) [2]; [11]) | Plant response rating, Kochia (kochia (Kochia scoparia) [2]; [12]) | Kochia plant response rating (kochia (Kochia scoparia) [2]; [13]) | Plant response rating, Ragweed [3, 10] | Plant response rating, Ragweed [3, 11] | Plant response rating, Ragweed [3, 12] | Ragweed plant response rating [3, 13] | also measured
Clc1cnc(Oc2ccccc2-c2cc(Cl)sn2)nc1 [Compound 192] | 50 | 80 | 90 | 95 | 0 | 0 | 0 | 5 |  |  |  |  |  |  |  |  |  |  |  |  | Plant response rating, Ryegrass, Italian [1, 5]: 50; Plant response rating, Ryegrass, Italian [1, 6]: 50; Plant response rating, Kochia (kochia (Kochia scoparia) [2]; [5]): 100; Plant response rating, Kochia (kochia (Kochia scoparia) [2]; [6]): 100; Plant response rating, Ragweed [3, 5]: 60; Plant response rating, Ragweed [3, 6]: 20
FC(Cl)(Cl)c1cc(-c2ccccc2Oc2ncc(Cl)cn2)no1 [Compound 198] | 60 | 95 | 100 | 100 | 5 | 5 | 10 | 10 | 0 | 50 | 10 | 20 | 0 | 80 | 80 | 30 | 0 | 20 | 10 | 10 | 
CC(F)(F)c1cc(-c2ccccc2Oc2ncc(Cl)cn2)no1 [Compound 220] | 100 |  |  |  | 5 |  |  |  | 0 | 40 | 0 | 30 | 50 | 100 | 90 | 90 | 0 | 10 | 0 | 10 | Plant response rating (scale 0 to 100), Kochia (kochia (Kochia scoparia) [4]; 2 g ai/ha): 20; Plant response rating (scale 0 to 100), Kochia (kochia (Kochia scoparia) [4]; 4 g ai/ha): 50; Plant response rating (scale 0 to 100), Kochia (kochia (Kochia scoparia) [4]; 8 g ai/ha): 100; Plant response rating (scale 0 to 100), Oat, Wild (wild oat (Avena fatua); 2 g ai/ha): 0; Plant response rating (scale 0 to 100), Oat, Wild (wild oat (Avena fatua); 4 g ai/ha): 0; Plant response rating (scale 0 to 100), Oat, Wild (wild oat (Avena fatua); 8 g ai/ha): 0
FCc1cc(-c2ccccc2Oc2ncc(Cl)cn2)on1 [Compound 224] | 35 | 70 | 95 | 100 | 0 | 0 | 0 | 0 | 0 | 0 | 0 | 0 | 60 | 100 | 70 | 90 |  | 100 | 50 |  | 
Fc1cccc(Oc2ncc(Cl)cn2)c1-c1cc(C(F)(F)F)no1 [Compound 228] | 100 | 100 | 100 | 100 | 10 | 20 | 40 | 55 | 30 | 90 | 20 | 70 | 70 | 100 | 100 | 100 | 0 | 40 | 30 | 30 | 
Cc1cc(-c2c(F)cccc2Oc2ncc(Cl)cn2)on1 [Compound 229] | 85 | 90 | 98 | 98 | 0 | 10 | 10 | 10 | 0 | 20 | 0 | 30 | 80 | 100 | 90 | 100 | 70 | 100 | 100 | 90 | 
